The target in the test is T1, Membrane primary amine oxidase (Homo sapiens, UniProt Q16853).
T1 sequence (Q16853 whole entry): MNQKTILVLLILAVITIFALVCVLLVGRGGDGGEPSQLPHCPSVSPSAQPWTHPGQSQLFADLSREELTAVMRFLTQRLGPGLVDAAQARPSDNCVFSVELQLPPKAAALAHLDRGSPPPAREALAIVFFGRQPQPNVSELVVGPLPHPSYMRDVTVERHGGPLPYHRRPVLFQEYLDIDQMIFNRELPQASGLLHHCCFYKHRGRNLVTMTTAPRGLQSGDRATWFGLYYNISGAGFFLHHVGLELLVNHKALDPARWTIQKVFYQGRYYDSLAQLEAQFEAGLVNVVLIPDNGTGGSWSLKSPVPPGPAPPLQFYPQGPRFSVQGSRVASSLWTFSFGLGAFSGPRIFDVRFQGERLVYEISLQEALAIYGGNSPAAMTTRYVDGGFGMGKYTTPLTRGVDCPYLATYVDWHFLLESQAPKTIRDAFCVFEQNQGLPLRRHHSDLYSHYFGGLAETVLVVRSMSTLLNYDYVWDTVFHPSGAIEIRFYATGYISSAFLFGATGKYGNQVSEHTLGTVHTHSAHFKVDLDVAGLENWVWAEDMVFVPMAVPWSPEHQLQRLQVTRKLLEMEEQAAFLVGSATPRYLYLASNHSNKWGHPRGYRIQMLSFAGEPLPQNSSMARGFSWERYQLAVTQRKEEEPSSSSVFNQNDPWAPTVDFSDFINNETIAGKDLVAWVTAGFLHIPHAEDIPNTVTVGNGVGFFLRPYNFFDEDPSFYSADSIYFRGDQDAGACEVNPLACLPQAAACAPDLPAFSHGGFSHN
Put plainly: Biological Assay. On the procedure:
All primary assays were performed at RT. with purified recombinantly expressed human SSAO. […] In addition, secondary- and selectivity assays were performed using SSAO prepared from various tissues or purified rat recombinant SSAO. The enzyme activity was assayed with benzylamine as substrate by measuring either benzaldehyde production, using 14C-labeled substrate, or by utilizing the production of hydrogen peroxide in a horseradish peroxidase (HRP) coupled reaction. Briefly, test compounds were dissolved in dimethyl sulfoxide (DMSO) to a concentration of 10 mM. Dose-response measurements were assayed by either creating 1:10 serial dilutions in DMSO to produce a 7 point curve or by making 1:3 serial dilutions in DMSO to produce 11 point curves.

With `Cc1cc(N)ncc1-c1cc2ccncc2n1-c1ccc(Cl)cc1` [5-[1-(4-Chlorophenyl)-1H-pyrrolo[2,3-c]pyridin-2-yl]-4-methylpyridin-2-amine; bis(trifluoroacetic acid)], the IC50 (as a rule, the concentration that inhibits the measured activity by half) is “in the range around 125 nM”.
